# Measurements taken from ChEMBL document CHEMBL6087394, “Immune Checkpoint-Modulating Photosensitizer That Targets BRD4 for Cancer Photoimmunotherapy” (J Med Chem, 2024).
# Active and inactive are the calls of the source. No cut-off for these calls is given here.
# Experiments:
# [1] = Photophysical property of the compound assessed as maximum fluorescent emission peak at by fluorescence at 10 uM spectrophotometric analysis; format: physicochemical
# [2] = Induction of ROS generation in PBS buffer assessed as increase in superoxide anion radical level by measuring increase in DHR123 fluorescence intensity at 5 uM irradiated with 660 nm 20 mW/cm2 light for upto 7 mins by DHR123 probe based fluorescence spectra analysis; format: functional
# [3] = Induction of singlet oxygen production in PBS buffer assessed as decrease in absorption signal at 410 nm under light irradiation with 660 nm 20 mW/cm2 by ABDA based microplate reader analysis relative to control; format: functional
# [4] = Drug uptake in human MDA-MB-231 cells assessed as increase in fluorescence intensity at 2.5 uM measured after 2 hrs by flow cytometry analysis; format: ADME, cell-based; conditions: mda-mb-231, 2 h
# MDA-MB-231 [5] = test: Induction of ROS production in human MDA-MB-231 cells assessed as increase in green fluorescent intensity at 0.1 uM preincubated with compound for 2 hrs followed by light irradiation for 10 mins by DCFH-DA probe based flow cytometry; format: functional, cell-based; conditions: time 130.0 min
# MDA-MB-231 [6] = test: Induction of ROS production in human MDA-MB-231 cells assessed as increase in green fluorescent intensity at 0.1 uM preincubated with compound for 2 hrs followed by light irradiation for 10 mins in presence of NaN3 by DCFH-DA probe based flow cytometry; format: functional, cell-based; conditions: time 130.0 min
# MDA-MB-231 [7] = test: Induction of ROS production in human MDA-MB-231 cells assessed as increase in green fluorescent intensity at 0.1 uM preincubated with compound for 2 hrs followed by light irradiation for 10 mins in presence of tiron by DCFH-DA probe based flow cytometry; format: functional, cell-based; conditions: time 130.0 min
# MDA-MB-231 [8] = test: Cytotoxicity against human MDA-MB-231 cells assessed as reduction in cell viability upto 10 uM incubated for 24 hrs by CCK-8 assay; format: functional, cell-based
# [9] = Phototoxicity against human MDA-MB-231 cells assessed as reduction in cell viability preincubated with compound for 2 hrs followed by light irradiation with 660 nm 20 mW/cm2 for 10 mins and measured after 24 hrs by CCK-8 assay; format: functional, cell-based; conditions: MDA-MB-231, light or radiation study
# MDA-MB-231 [10] = test: Induction of cell death in human MDA-MB-231 cells assessed as increase in bright red signal at 0.5 uM preincubated with compound for 2 hrs followed by light irradiation with 660 nm 20 mW/cm2 for 10 mins and measured after 12 hrs by Calcein-AM staining based inverted fluorescence microscopic analysis; format: functional; conditions: time 850.0 min
# [11] = biological target: T1, Bromodomain-containing protein 4 (Homo sapiens, UniProt O60885); test: Inhibition of BRD4 (unknown origin) incubated for 120 mins by TR-FRET assay
# MDA-MB-231 [12] = test: Induction of pyroptosis in human MDA-MB-231 cells assessed as cell swelling at 0.25 uM preincubated with compound for 2 hrs followed by light irradiation with 660 nm 20 mW/cm2 for 10 mins and measured after 24 hrs by CLSM imaging analysis; format: functional, cell-based; conditions: time 1570.0 min
# MDA-MB-231 [13] = test: Induction of pyroptosis in human MDA-MB-231 cells assessed as formation of large bubbles on plasma membrane at 0.25 uM preincubated with compound for 2 hrs followed by light irradiation with 660 nm 20 mW/cm2 for 10 mins and measured after 24 hrs by CLSM imaging analysis; format: functional, cell-based; conditions: time 1570.0 min
# MDA-MB-231 [14] = test: Induction of pyroptosis in human MDA-MB-231 cells assessed as increase in GSDME-N expression at 0.25 uM preincubated with compound for 2 hrs followed by light irradiation with 660 nm 20 mW/cm2 for 10 mins and measured after 24 hrs by Western blot analysis; format: functional, cell-based; conditions: time 1570.0 min
# MDA-MB-231 [15] = test: Induction of pyroptosis in human MDA-MB-231 cells assessed as increase in cleaved caspase -3 expression at 0.1 uM preincubated with compound for 2 hrs followed by light irradiation with 660 nm 20 mW/cm2 for 10 mins and measured after 24 hrs by Western blot analysis; format: functional, cell-based; conditions: time 1570.0 min
# MDA-MB-231 [16] = test: Induction of pyroptosis in human MDA-MB-231 cells assessed as effect on cleaved GSDMD expression at 0.1 uM preincubated with compound for 2 hrs followed by light irradiation with 660 nm 20 mW/cm2 for 10 mins and measured after 24 hrs by Western blot analysis; format: functional, cell-based; conditions: time 1570.0 min
# MDA-MB-231 [17] = test: Induction of pyroptosis in human MDA-MB-231 cells assessed as effect on caspase-1 expression at 0.1 uM preincubated with compound for 2 hrs followed by light irradiation with 660 nm 20 mW/cm2 for 10 mins and measured after 24 hrs by Western blot analysis; format: functional, cell-based; conditions: time 1570.0 min
# MDA-MB-231 [18] = test: Effect on LDH level in human MDA-MB-231 cells preincubated with compound for 2 hrs followed by light irradiation with 660 nm 20 mW/cm2 for 10 mins and measured after 24 hrs; format: functional, cell-based; conditions: time 1570.0 min
# MDA-MB-231 [19] = test: Effect on IL-1beta level in human MDA-MB-231 cells preincubated with compound for 2 hrs followed by light irradiation with 660 nm 20 mW/cm2 for 10 mins and measured after 24 hrs by ELISA analysis; format: functional, cell-based; conditions: time 1570.0 min
# MDA-MB-231 [20] = test: Induction of cell death in human MDA-MB-231 cells assessed as increase in HMGB1 release in nucleus by immunofluorescence staining based analysis; format: functional
# MDA-MB-231 [21] = test: Induction of ferroptosis in human MDA-MB-231 cells assessed as decrease in GSH level at 0.1 uM preincubated with compound for 2 hrs followed by light irradiation with 660 nm 20 mW/cm2 for 10 mins and measured after 12 hrs; format: functional, cell-based; conditions: time 850.0 min
# MDA-MB-231 [22] = test: Induction of ferroptosis in human MDA-MB-231 cells assessed as increase in intracellular LPO accumulation by measuring green fluorescence intensity at 0.1 uM preincubated with compound for 2 hrs followed by light irradiation with 660 nm 20 mW/cm2 for 10 mins and measured after 12 hrs; format: functional, cell-based; conditions: time 850.0 min
# MDA-MB-231 [23] = test: Induction of ferroptosis in human MDA-MB-231 cells assessed as reduction in GPX4 expression at 0.1 uM preincubated with compound for 2 hrs followed by light irradiation with 660 nm 20 mW/cm2 for 10 mins and measured after 12 hrs by Western blot analysis; format: functional, cell-based; conditions: time 850.0 min
# MDA-MB-231 [24] = test: Induction of autophagy in human MDA-MB-231 cells assessed as increase in ratio of LC3-II to LC3-I preincubated with compound for 2 hrs followed by light irradiation with 660 nm 20 mW/cm2 for 10 mins and measured after 12 hrs by Western blot analysis; format: functional, cell-based; conditions: time 850.0 min
# MDA-MB-231 [25] = test: Induction of autophagy in human MDA-MB-231 cells assessed as downregulation p62 expression preincubated with compound for 2 hrs followed by light irradiation with 660 nm 20 mW/cm2 for 10 mins and measured after 24 hrs by Western blot analysis; format: functional, cell-based; conditions: time 1570.0 min
# MDA-MB-231 [26] = test: Induction of DNA damage in human MDA-MB-231 cells assessed as upregulation of gamma-H2AX expression preincubated with compound for 2 hrs followed by light irradiation with 660 nm 20 mW/cm2 for 10 mins and measured after 24 hrs by Western blot analysis; format: functional, cell-based; conditions: time 1570.0 min
# MDA-MB-231 [27] = test: […] in human MDA-MB-231 cells assessed as decrease in RAD51 expression preincubated with compound for 2 hrs followed by light irradiation with 660 nm 20 mW/cm2 for 10 mins and measured after 24 hrs by Western blot analysis; format: functional, cell-based; conditions: time 1570.0 min
# MDA-MB-231 [28] = test: Down regulation of PD-L1 expression in human MDA-MB-231 cells incubated for 24 hrs by Western blot analysis; format: functional, cell-based; conditions: dose 0.5-2.5 µM
# MDA-MB-231 [29] = test: Down regulation of PD-L1 expression in human MDA-MB-231 cells at 0.1 uM preincubated with compound for 2 hrs followed by light irradiation with 660 nm 20 mW/cm2 for 10 mins and measured after 24 hrs by Western blot analysis; format: functional, cell-based; conditions: time 1570.0 min
# [30] = biological target: T1, Bromodomain-containing protein 4; test: Inhibition of BRD4 in human MDA-MB-231 cells assessed as downregulation of c-Myc expression at 0.5 to 2.5 uM incubated for 24 hrs by Western blot analysis; format: cell-based; conditions: dose 0.5-2.5 µM
# [31] = Biodistribution in female BALB/c mouse tumor at 2.5 mg/kg, iv measured at 1 hr; format: ADME, organism-based, Neoplasm; conditions: in vivo
# [32] = Biodistribution in female BALB/c mouse tumor at 2.5 mg/kg, iv measured at 3 hrs; format: ADME, organism-based, Neoplasm; conditions: in vivo
# 4T1 [33] = test: Antitumor activity against mouse 4T1 cells implanted in female BALB/c mouse assessed as inhibition of tumor growth at 2.5 mg/kg, iv preincubated with compound for 3 hrs followed by light irradiation with 660 nm 300 mW/cm2 for 3 min and measured after 14 days; format: functional, organism-based; conditions: time 20343.0 min
# 4T1 [34] = test: Antitumor activity against mouse 4T1 cells implanted in female BALB/c mouse assessed as inhibition of tumor growth at 2.5 mg/kg, iv; format: functional, organism-based
# [35] = Toxicity in BALB/c mouse implanted with mouse 4T1 cells at 2.5 mg/kg, iv; format: organism-based; conditions: in vivo
# [36] = Toxicity in BALB/c mouse implanted with mouse 4T1 cells assessed as heart damage at 2.5 mg/kg, iv measured after 14 days by H and E staining based analysis; format: organism-based; conditions: in vivo, 336 h, time 14 day
# [37] = Toxicity in BALB/c mouse implanted with mouse 4T1 cells assessed as liver damage at 2.5 mg/kg, iv measured after 14 days by H and E staining based analysis; format: organism-based; conditions: in vivo, 336 h, time 14 day
# [38] = Toxicity in BALB/c mouse implanted with mouse 4T1 cells assessed as spleen damage at 2.5 mg/kg, iv measured after 14 days by H and E staining based analysis; format: organism-based; conditions: in vivo, 336 h, time 14 day
# [39] = Toxicity in BALB/c mouse implanted with mouse 4T1 cells assessed as kidney damage at 2.5 mg/kg, iv measured after 14 days by H and E staining based analysis; format: organism-based; conditions: in vivo, 336 h, time 14 day
# 4T1 [40] = test: Antitumor activity against mouse 4T1 cells implanted in female BALB/c mouse assessed as increase in CD4+ T cells at 2.5 mg/kg, iv preincubated with compound for 3 hrs followed by light irradiation with 660 nm 300 mW/cm2 for 3 min and measured after 14 days; format: functional, organism-based; conditions: time 20343.0 min
# 4T1 [41] = test: Antitumor activity against mouse 4T1 cells implanted in female BALB/c mouse assessed as increase in CD8+ T cells at 2.5 mg/kg, iv preincubated with compound for 3 hrs followed by light irradiation with 660 nm 300 mW/cm2 for 3 min and measured after 14 days; format: functional, organism-based; conditions: time 20343.0 min
# 4T1 [42] = test: Antitumor activity against mouse 4T1 cells implanted in female BALB/c mouse assessed as increase in T cell infiltration at 2.5 mg/kg, iv preincubated with compound for 3 hrs followed by light irradiation with 660 nm 300 mW/cm2 for 3 min and measured after 14 days; format: functional, organism-based; conditions: time 20343.0 min
smiles,measurement,setting,value
CCN(CC)c1ccc2nc3c(cc(NCc4ccc(NC(=O)C[C@H]5N=C(c6ccc(Cl)cc6)c6c(sc(C)c6C)-n6c(C)nnc65)cc4)c4ccccc43)[s+]c2c1.[Cl-],Activity,[1],Active
same,Activity,[2],Active
same,Activity,[3],Active
same,Drug uptake,[4],Active
same,Activity,MDA-MB-231 [5],Active
same,Activity,MDA-MB-231 [6],inactive
same,Activity,MDA-MB-231 [7],Active
same,Activity,MDA-MB-231 [8],Active
same,IC50,[9],110 nM
same,Activity,MDA-MB-231 [10],Active
same,IC50,[11],45 nM
same,Activity,MDA-MB-231 [12],Active
same,Activity,MDA-MB-231 [13],Active
same,Activity,MDA-MB-231 [14],Active
same,Activity,MDA-MB-231 [15],Active
same,Activity,MDA-MB-231 [16],inactive
same,Activity,MDA-MB-231 [17],inactive
same,Activity,MDA-MB-231 [18],Active
same,Activity,MDA-MB-231 [19],Active
same,Activity,MDA-MB-231 [20],Active
same,Activity,MDA-MB-231 [21],Active
same,Activity,MDA-MB-231 [22],Active
same,Activity,MDA-MB-231 [23],Active
same,Activity,MDA-MB-231 [24],Active
same,Activity,MDA-MB-231 [25],Active
same,Activity,MDA-MB-231 [26],Active
same,Activity,MDA-MB-231 [27],Active
same,Activity,MDA-MB-231 [28],Dose-dependent-effect
same,Activity,MDA-MB-231 [29],Active
same,inhibition,[30],Active
same,Drug uptake,[31],Active
same,Drug uptake,[32],Active
same,Activity,4T1 [33],Active
same,Activity,4T1 [34],Active
same,Activity,[35],Non-toxic
same,Activity,[36],Non-toxic
same,Activity,[37],Non-toxic
same,Activity,[38],Non-toxic
same,Activity,[39],Non-toxic
same,Activity,4T1 [40],Active
same,Activity,4T1 [41],Active
same,Activity,4T1 [42],Active
